Source: patent publication US20090029956A1, “Substance mixture” (priority 2005, published 2009)

System: human ciliary cells
Assay: Flicker frequency and regeneration capability of human ciliary cells, photometric method
Format: cell-based
Details: for Mean value in percent, 20 min test Solution: (II) / Mean value in percent, 20 min NaCl 0.9% (III): Time I = 100; for Mean value in percent, 20 min NaCl 0.9% (III): Time III (regeneration)
Experimental: In comparison with this, the seriously damaging effect of preservatives (on the basis of benzalkonium chloride, BAC) used in conventional cortisone preparations on human ciliary cells was compared. The flicker frequency was determined in a manner known per se by means of a photometric method. Solutions and fluticasone propionate and mixed solutions of fluticasone propionate with N-chlorotaurine sodium (NCT) were prepared in accordance with the following table: Mucous membrane cells were first incubated with an isotonic NaCl solution for 20 minutes (Time I), subsequently incubated with the solutions A, B and C for 20 minutes (Time II) and subsequently incubated in an isotonic solution for a further 20 minutes (Time III). Parallel to this, […] mucous membrane cells were incubated according to the same pattern in comparison with BAC solutions (concentrations of 0.04 mg/ml; 0.1 mg/ml; 0.2 mg/ml; 0.5 mg/ml). The results of the regeneration capability of the ciliary cells after treatment with the solutions A, B and C were compared with the results after the treatment with the BAC solutions.

benzalkonium chloride [BAC]
Mean value in percent, 20 min test Solution: (II) (0.04 mg/ml BAC): 96.6% | Mean value in percent, 20 min NaCl 0.9% (III) (0.04 mg/ml BAC): 100% | Mean value in percent, 20 min test Solution: (II) (0.1 mg/ml BAC): 91.9% | Mean value in percent, 20 min NaCl 0.9% (III) (0.1 mg/ml BAC): 93.6% | Mean value in percent, 20 min test Solution: (II) (0.2 mg/ml BAC): 63.5% | Mean value in percent, 20 min NaCl 0.9% (III) (0.2 mg/ml BAC): 19.4% | Mean value in percent, 20 min test Solution: (II) (0.5 mg/ml BAC): 0% | Mean value in percent, 20 min NaCl 0.9% (III) (0.5 mg/ml BAC): 0% | Recovery of ciliary cells after treatment (treatment with more than 0.1 mg/ml benzalkonium chloride): remain permanently damaged
